This note sets out measurements from US20240041813A1, “VERY-LONG-CHAIN POLYUNSATURATED FATTY ACIDS, ELOVANOID HYDROXYLATED DERIVATIVES, AND METHODS OF USE” (priority 2020, published 2024).

Entries after “also recorded” stand apart in the source; their conditions may differ.

For data set [1], the system named is receptor-binding domain (RBD) of the SARS-CoV-2 spike. Format: cell-based, human.
Data set [2] concerns ACE2. Put plainly: Cytokine screening for stimulation of Ace2 in HCEC (dd-PCR). Format: cell-based, human. The conditions noted are these: cytokine at 1, 10, and 100 ng/mL, 6 hours.
In data set [3] the test system is human alveolar cells. Put plainly: Fate of added VLC-PUFAs in human bronchiole/alveoli cell cultures (LC-MS/MS). The conditions noted are these: human lung cell cultures; paired with FA18:1 or FA18:0.
In data set [4] the test system is ACE2. The data set is described as follows: Rat cornea alkali burn: ACE2 abundance by Jess capillary-based Western Blot. In kind it is in vivo. The conditions noted are these: rat cornea after alkali burn, eye drops 20 μl/eye, 3 times/day for 14 days, day 14. An excerpt: Sprague-Dawley rats (8-week-old male) were obtained from Charles River Laboratories (Wilmington, MA, USA) and kept at the Animal Care of the Neuroscience Center of Excellence, Louisiana State University Health (LSUH; New Orleans, LA, USA). All animals were handled in compliance with the guidelines of the ARVO Statement for the Use of Animals in Ophthalmic and Vision Research, and the experimental protocol was approved by the Institutional Animal Care and Use Committee (IACUC) at LSUH.
(§1) The rats were anesthetized by intraperitoneal injection of Ketamine (50-100 mg/kg) plus xylazine (5-10 mg/kg). A 4 mm diameter filter paper soaked in 1 N NaOH was placed on the central cornea of the right eye for 45 seconds, and then the eye was thoroughly washed with […] of saline. After injury, the rats were randomly divided into five treatment groups: vehicle; lipoxin A4 (LXA4) from Cayman Chemical (Ann Arbor, MI, USA); R,R Resolvin D6 isomer (RvD6i), R,R neuroprotection D (NPD1), and elovanoid (ELV)-N32. All lipid solutions were prepared at the final concentration of […] using PBS with the minimal contamination of ethanol by evaporating the ethanol and immediately dissolve the lipids in PBS, then vortex well for 2 min. Topical administration (20 μl) was done 3×/day for 14 days. The experiments were double-blinded with the lipid mediators coded during the whole experiments. At the end of the study, when all data was collected, the code was opened.
Briefly, samples were lysed with RIPA buffer containing a protease inhibitor cocktail (Sigma, Cat. P8340). Cell debris was removed after 10 min centrifugation at 16,000×g. Protein concentration was determined by BCA assay (Thermo Fisher Scientific, Cat. 23225) and 1 μg used/reaction. Fluorescent Master Mix was mixed with 40 mM DTT, and the mixture was added to each sample to provide a denaturing and reducing environment. Samples were heated at 95° C./5 min, and 3 μL of each sample were loaded. The 12-230 kDa cartridge (Protein Simple—#SM-W004) was used. Primary antibodies were diluted in antibody diluent 2 buffer (Protein Simple, #042-203) while the working solution of secondary antibodies was provided by the company (Protein Simple, #042-206). Then, the filled plate was spin-down for 10 min at 1,000×g to remove bubbles and plate, and capillaries were loaded into the Jess machine. For data analysis, the area of spectra that matched the molecular weight of the target protein was used. To reduce the coefficient variant, we analyzed the GAPDH for each capillary. The ratio of the targeted protein to GAPDH was used for statistical comparisons. For visualization, the artificial lanes generated from spectra volume was used.
Background: Immunoblotting shows a protein as a band on a membrane.

The test system of data set [5] is Alexa 594-RBD. Format: in vivo. The conditions noted are these: rat cornea after alkali burn; 14 days treatment; Alexa 594-RBD 1 μg/eye, 3 times at day 15, examined a day later.
In data set [6] the test system is ACE2. Put plainly: Rat cornea alkali burn: corneal RNA-seq, Ace2 gene expression. In kind it is in vivo. The conditions noted are these: rat cornea after alkali burn, eye drops 3 times/day for 14 days, RNA-seq day 14. The protocol: as §1
(§2) Injured corneas (n=5/condition) were harvested and homogenized with TRIzol (Thermo Fisher Scientific) on ice with a glass Dounce homogenizer. RNA sequencing was performed as described^14. Briefly, after mRNA extraction and determination of purity, 8 ng of total RNA was reverse transcribed, and total cDNAs were amplified using ISPCR primer, and the library was made with the Nextera XT DNA library preparation kit (Illumina, San Diego, CA, USA). The libraries were pooled with the same molarity and sequenced using the NextSeq 500/550 High Output Kit v2 (75 cycles, Illumina). After demultiplexing, RNA-seq data were aligned to the Rattus Norvegicus reference genome (.ensembl.org/pub/release-98/fasta/rattus_norvegicus/dna/) using the Subread package v2.0.1 alignment function39. The BAM files for sequencing data alignment were counted using featureCounts function of Subread tool^40 using the macOS Catalina. The raw count data were subjected to differential gene expression analysis using DESeq2 package for R^41 with the vehicle group as reference. The adjusted p-values were named as the false discover rate (FDR).

Data set [7] relates to injured rat cornea. The data set is described as follows: Rat cornea alkali burn: corneal RNA-seq, cytokine storm, NFkB/inflammation, senescence, integrin and protease genes. The conditions noted are these: for availability of ACE2, TMPRSS2 and Furin increased after alkali burn: rat cornea after alkali burn, RNA-seq, ACE2 and Furin confirmed by JESS (Example 15). In kind it is in vivo. Here is the method: as §1, §2

Data set [8] deals with Cdkn2a (p16INK4a). The data set is described as follows: HCEC challenged with IFNγ: Cdkn2a gene expression. Format: cell-based, human. The conditions noted are these: IFNγ 100 ng/ml. An excerpt: All experiments with human corneal epithelial cells were approved by the Institutional Review Board of LSUHNO and conducted in accordance with NIH guidelines. HCEC were kept frozen in the laboratory at passage 2544. Cells were maintained in keratinocyte growth (KGM) medium containing the keratinocyte basal medium (KBM) (Lonza: CC-3101) supplemented with bovine pituitary extract (BPE), hEGF, Insulin, Hydrocortisone and Gentamicin Sulfate-Amphotericin (GA-1000) (Lonza, Cat. CC-4131). For all experiments, cells were seeded at 30,000 cells/cm2.
(§3) For screening the stimulation of receptor ACE2 by cytokines, the HCEC were cultured with KGM until 50-60% confluence. Then, changed to KBM containing IL-1β, -2, -6 and 8, IFN-α, -ε, and -γ or TNFα at 1, 10 or 100 ng/ml. The cells were harvested after 6 hours and analyze for the gene expression of Ace2. In other experiments, HCEC were stimulated with IFNγ, and thereafter, lipid mediators were added. For the Alexa 594-conjugated RBD binding, IFNγ was used as a cytokine trigger. At 12 hours after cytokine exposure and lipid mediator treatments, […] of labeled RBD was added to the medium. The evaluation of RBD binding was conducted 24 hours after.
Quantitative PCR was performed with the Biomark HD system (Fluidigm, San Francisco, CA, USA). Briefly, 200 ng of RNA was reverse-transcribed using iScript Reverse Transcription Supermix (Bio-Rad), and the cDNA was pre-amplified using the PreAmp Master Mix (PN 100-5580; Fluidigm). The cDNA was then subjected to Exonuclease I treatment and diluted 5 times in TE Buffer. The qPCR reaction mixture and primer reaction mixture were made and loaded into the Biomark 96.96 IFC™ (Integrated Fluidic Circuit). The enzyme reaction was mixed using Juno™ Controller (Fluidigm) and run using the cycling program of (i) 70° C. for 40 minutes followed by 60° C. for 30 seconds, (ii) hot start for 1 minute at 95° C., (iii) 30 cycles of denaturation at 96° C. for 5 seconds, and annealing at 60° C. for 20 seconds, and (iv) melting curves between 60° C. and 95° C. with 1° C. increments/3 seconds. The Ct value of target genes was normalized to the house-keeping genes Gapdh, Hprt1, and Tfrc before normalized to the vehicle group. Relative fold changes from the ΔΔCT calculation was used to make the graph.

Data set [9] relates to human corneal epithelial cells (HCEC). Put plainly: HCEC challenged with IFNγ: SASP secretome (β-Gal staining). Format: cell-based. The conditions noted are these: HCEC 24 h after IFN-γ challenge.
Data set [10] has as its system Alexa 594-RBD. Put plainly: HCEC challenged with IFNγ: Alexa 594-RBD binding (unbiased imaging, Imaris). Format: cell-based, human. The conditions noted are these: IFNγ 100 ng/ml and lipid mediators 200 nM for 12 h, images 24 h after RBD. Here is the method:
as §3
Twenty-four hours after Alexa 594-RBD was added to the HCEC, the cells were washed with PBS (3×/5 min) and fixed with 4% paraformaldehyde for 30 minutes at RT. The HCEC were washed 2× with PBS and stained with Hoechst 33342 Solution (ThermoFisher Scientific, Cat. 62249) for 30 minutes at RT. Next, the HCEC were washed 2× with PBS before imaging. For unbiased data collection, 7 designated areas were defined in each well (FIG. 63) and captured with an Olympus FV3000 confocal laser scanning microscopy under “Multi Area Time Lapse” (MATL) mode. All images were acquired with the same parameters and Z-section range, converted and inputted in the Imaris software version 9.5.1. The threshold for the control images was defined by the HCEC without Alexa 594-conjugated RBD of S protein and using it as a threshold filter for the Imaris batch image processing function. The sum of total intensity for each image was used to evaluate the binding efficiency.

With `CC/C=C\C[C@H](O)\C=C/C=C/C=C/[C@H](O)C/C=C\C/C=C\CCCCCCCCCCCCC(=O)OC` [ELV32 methyl ester, methyl (14Z,17Z,20R,21E,23E,25Z,27S,29Z)-20,27-dihydroxydotriaconta-14,17,21,23,25,29-hexaenoate], the “RBD of the SARS-CoV-2 spike entrance / internalized RBD” value in data set [1] is recorded as “downregulated”.

Consider IL6, for which the “Ace2 expression (dd-PCR)” value in data set [2] is reported as “no significant increase”.

As to `CC/C=C\C/C=C\C/C=C\C/C=C\C/C=C\C/C=C\CCCCCCCCCCCCC(=O)O` [32:6, (14Z,17Z,20Z,23Z,26Z,29Z)-dotriaconta-14,17,20,23,26,29-hexaenoic acid], the “RBD protein internalization (RBD located below the membrane line)” value in [1] is reported as “decrease; also recorded: reduces”. Further, the “incorporation in phosphatidylcholine molecular species” value in data set [3] is on record as “incorporated”.

Consider IL8, for which, in [2], the “Ace2 expression (dd-PCR)” value is “no significant increase”.

For `CCCCC[C@@H](O)/C=C/C=C\C=C\C=C\[C@@H](O)[C@@H](O)CCCC(=O)O` [LXA4, reference compound], the “ACE2 abundance (protein, normalized to GAPDH)” value in data set [4] is on record as “decrease”; in data set [4] (listed as Lipoxin A4), “downregulates”. Also, in data set [5], the “binding of Alexa 594-RBD to injured cornea” value was “decrease; also recorded: counteracted; also recorded: significant effect”. Moreover, the “Ace2 gene expression levels” value is reported as “decrease” in [6] and “downregulates” in [6] (listed as Lipoxin A4). The results for the “availability of ACE2, TMPRSS2 and Furin increased after alkali burn” value in [7] and in data set [7] (listed as Lipoxin A4) were “remarkable blocked” and “downregulates”, respectively. The “Il6 and Vegfa expression” value in data set [7] (rat cornea, RNA-seq 14 days after injury) was “reduced”. Also, the Cdkn2a activation result in [8] is “does not”. Besides, the “senescence programming genes and SASP secretome activation (β-Gal)” value in data set [9] was “not”.

On to `CC/C=C\C/C=C\C/C=C\C/C=C\C/C=C\C/C=C\CCCCCCCCCCCCCCC(=O)O` [34:6, (16Z,19Z,22Z,25Z,28Z,31Z)-tetratriaconta-16,19,22,25,28,31-hexaenoic acid], for which, in data set [1], the “RBD protein internalization (RBD located below the membrane line)” value was “decrease; also recorded: reduces”. Moreover, in data set [3], the “incorporation in phosphatidylcholine molecular species” value was “incorporated”.

With IL1β, the “internalized RBD signal” value in [1] is “increased”. Also, the “Ace2 expression (dd-PCR)” value in data set [2] is listed as “no significant increase”.

Consider `CC/C=C\C[C@H](O)C#C/C=C/C=C/[C@H](O)C/C=C\C/C=C\CCCCCCCCCCCCC(=O)OC` [ELV 32(AC) acetylenic methyl ester, methyl (14Z,17Z,20R,21E,23E,27S,29Z)-20,27-dihydroxydotriaconta-14,17,21,23,29-pentaen-25-ynoate], for which the “RBD of the SARS-CoV-2 spike entrance / internalized RBD” value in data set [1] is listed as “downregulated”.

For the molecule TNFα, the “internalized RBD signal” value in data set [1] is “increased”. In addition, in data set [2], the “Ace2 expression (dd-PCR)” value is listed as “no significant increase”.

In the case of `CC/C=C\C[C@H](O)\C=C/C=C/C=C/[C@H](O)C/C=C\C/C=C\CCC(=O)O` [NPD1], the “ACE2 abundance (protein, normalized to GAPDH)” value in [4] is “failed to decrease; also recorded: no effect”. In addition, the “binding of Alexa 594-RBD to injured cornea” value in data set [5] is on record as “fails; also recorded: did not have an effect; also recorded: failed to decrease”. For the same molecule, the Cdkn2a activation entry in [8] is recorded as “decrease”. Also, in [10], the “IFNγ-stimulated Alexa 594-RBD binding” value is reported as “decrease; also recorded: attenuated”. Moreover, the “senescence programming genes and SASP secretome activation (β-Gal)” value in [9] was “blocked”.

On to `CC/C=C\C[C@H](O)/C=C/C=C\C/C=C\C/C=C\C=C\[C@@H](O)CCC(=O)O` [RvD6, reference compound], for which the “IFNγ-stimulated Alexa 594-RBD binding” value in data set [10] is listed as “decrease”.

B1: IFNγ (protein, UniProt P01579 24-161, looked up)
Interferon gamma: QDPYVKEAENLKKYFNAGHSDVADNGTLFLGILKNWKEESDRKIMQSQIVSFYFKLFKNFKDDQSIQKSVETIKEDMNVKFFNSNKKKRDDFEKLTNYSVTDLNVQRKAIHELIQVMAELSPAAKTGKRKRSQMLFRG
With B1, the “Ace2 expression (dd-PCR)” value in data set [2] is listed as “activate”.

B2: IFNε (protein, UniProt Q86WN2 22-208, looked up)
Interferon epsilon: LDLKLIIFQQRQVNQESLKLLNKLQTLSIQQCLPHRKNFLLPQKSLSPQQYQKGHTLAILHEMLQQIFSLFRANISLDGWEENHTEKFLIQLHQQLEYLEALMGLEAEKLSGTLGSDNLRLQVKMYFRRIHDYLENQDYSTCAWAIVQVEISRCLFFVFSLTEKLSKQGRPLNDMKQELTTEFRSPR
As for B2, the “Ace2 expression (dd-PCR)” value in data set [2] was “no significant increase”.
